Experimental data as given in article PMC5750218, “Protein-inspired antibiotics active against vancomycin- and daptomycin-resistant bacteria” (Nature Communications, 2018).
≈ marks a conversion by molar mass, not a printed value. Where “and” joins values, the source holds several entries; their conditions need not be identical. Identical values can stand only once.

Tests used:
Assay in all cases: microbe, parasite or virus in culture
[1] = tested on: Vancomycin-intermediate S. aureus NRS1
Description: (§1) Antimicrobial activity of compounds was tested against a number of bacterial strains by broth microdilution (BMD) assay with MIC determination, including S. aureus (MSSA ATCC® 29213™, MRSA ATCC® 43300™, VISA NARSA NRS1, VISA NARSA NRS4), Streptococcus pneumoniae (MDR ATCC® 700677™) and Enterococcus faecium (MDR VanA ATCC® 51559™). ATCC strains were sourced from the American Type Culture Collection and NRS strains from NARSA (Network on Antimicrobial Resistance in S. aureus) via BEI Resources (www.beiresources.org). All compounds were prepared to 160 µg mL^−1 solution in water from a stock solution of 1 mM concentration.
(§2) The compounds, along with standard antibiotics were serially diluted twofold across the wells of 96-well non-binding surface (NBS) polystyrene plates (Corning 3641). […] Standards ranged from 64 to 0.03 µg mL^−1 and compounds from 8 to 0.003 µg mL^−1 with final assay volumes of 100 µL per well. Gram-positive bacteria were cultured in Mueller Hinton broth (MHB) (Bactolaboratories, Cat. no. 211443) at 37 °C overnight. A sample of each culture was then diluted 40-fold in fresh MHB and incubated at 37 °C for 2–3 h. […] All the plates were covered and incubated at 37 °C for 24 h. MICs were the lowest concentration showing no visible growth.

[2] = tested on: Vancomycin-resistant (VanA) Enterococcus faecium ATCC 51559
Description: as §1, §2

[3] = tested on: Multi-drug-resistant S. pneumoniae ATCC 700677
Description: as §1, §2

[4] = tested on: Methicillin-resistant S. aureus ATCC 43300
Description: as §1
as §2, with “The compounds, along with standard antibiotics were serially diluted twofold across the wells of 96-well non-binding surface (NBS) polystyrene plates (Corning 3641).” left out

| Molecule | MIC VISA ([1]; Vancomycin-intermediate NRS1) [µg/mL] | MIC VRE ([2]; ATCC 51559) [µg/mL] | MIC MDR S.P. ([3]; ATCC 700677) [µg/mL] | MIC MRSA ([4]; ATCC 43300, 24 h) [µg/mL] | MIC VISA ([1]; S. aureus NRS1) | MIC VRE ([2]; E. faecium MDR VanA ATCC 51559, substance alone) [µg/mL] | MIC MDR S.P. ([3]; S. pneumoniae ATCC 700677) | MIC MRSA ([4]; S. aureus ATCC 43300, NBS plates, MHB, 24 h, substance alone) |
| --- | --- | --- | --- | --- | --- | --- | --- | --- |
| CNC(=O)[C@H](CCCCNC(=O)[C@H]1NC(=O)[C@H]2NC(=O)[C@H](NC(=O)[C@@H]3NC(=O)[C@H](CC(N)=O)NC(=O)[C@H](NC(=O)[C@@H](CC(C)C)NC)[C@H](O)c4ccc(c(Cl)c4)Oc4cc3cc(c4O[C@@H]3O[C@H](CO)[C@@H](O)[C@H](O)[C@H]3O[C@H]3C[C@](C)(N)[C@H](O)[C@H](C)O3)Oc3ccc(cc3Cl)[C@H]2O)c2ccc(O)c(c2)-c2c(O)cc(O)cc21)NC(=O)[C@H](CCCN)NC(=O)[C@H](CCCN)NC(=O)[C@H](CCCCNC(=O)c1ccc(Oc2ccccc2)cc1)NC(=O)c1ccc(Oc2ccccc2)cc1 [Compound 34, POB2K-Orn-Orn-K(Vancomycin)-NHMe] | 0.0185 (≈ 7.91 nM) | 0.5 (≈ 214 nM) | <0.003 | <0.003 | – | – | – | – |
| POB2K-Dap-K-K(Vancomycin)-NHMe [Compound 28] | – | – | – | – | 0.125 µg/mL and 0.155 µg/mL | 0.75 | 0.015 µg/mL and 0.011 µg/mL | <0.003 µg/mL and 0.0045 µg/mL |
| CNC(=O)[C@H](CCCCNC(=O)[C@H]1NC(=O)[C@H]2NC(=O)[C@H](NC(=O)[C@@H]3NC(=O)[C@H](CC(N)=O)NC(=O)[C@H](NC(=O)[C@@H](CC(C)C)NC)[C@H](O)c4ccc(c(Cl)c4)Oc4cc3cc(c4O[C@@H]3O[C@H](CO)[C@@H](O)[C@H](O)[C@H]3O[C@H]3C[C@](C)(N)[C@H](O)[C@H](C)O3)Oc3ccc(cc3Cl)[C@H]2O)c2ccc(O)c(c2)-c2c(O)cc(O)cc21)NC(=O)[C@H](CCCCN)NC(=O)[C@H](CCCN)NC(=O)[C@H](CCCCNC(=O)c1ccc(Oc2ccccc2)cc1)NC(=O)c1ccc(Oc2ccccc2)cc1 [Compound 33, POB2K-Orn-K-K(Vancomycin)-NHMe] | 0.125 (≈ 53.1 nM) | 1.5 (≈ 637 nM) | 0.007 (≈ 2.97 nM) | <0.003 | – | – | – | – |
| CNC(=O)[C@H](CCCCNC(=O)[C@H]1NC(=O)[C@H]2NC(=O)[C@H](NC(=O)[C@@H]3NC(=O)[C@H](CC(N)=O)NC(=O)[C@H](NC(=O)[C@@H](CC(C)C)NC)[C@H](O)c4ccc(c(Cl)c4)Oc4cc3cc(c4O[C@@H]3O[C@H](CO)[C@@H](O)[C@H](O)[C@H]3O[C@H]3C[C@](C)(N)[C@H](O)[C@H](C)O3)Oc3ccc(cc3Cl)[C@H]2O)c2ccc(O)c(c2)-c2c(O)cc(O)cc21)NC(=O)[C@H](CCN)NC(=O)[C@H](CCCCN)NC(=O)[C@H](CCCCNC(=O)c1ccc(Oc2ccccc2)cc1)NC(=O)c1ccc(Oc2ccccc2)cc1 [Compound 30, POB2K-K-Dab-K(Vancomycin)-NHMe] | 0.0925 (≈ 39.5 nM) | 0.75 (≈ 321 nM) | <0.003 | <0.003 | – | – | – | – |
| CNC(=O)[C@H](CCCCNC(=O)[C@H]1NC(=O)[C@H]2NC(=O)[C@H](NC(=O)[C@@H]3NC(=O)[C@H](CC(N)=O)NC(=O)[C@H](NC(=O)[C@@H](CC(C)C)NC)[C@H](O)c4ccc(c(Cl)c4)Oc4cc3cc(c4O[C@@H]3O[C@H](CO)[C@@H](O)[C@H](O)[C@H]3O[C@H]3C[C@](C)(N)[C@H](O)[C@H](C)O3)Oc3ccc(cc3Cl)[C@H]2O)c2ccc(O)c(c2)-c2c(O)cc(O)cc21)NC(=O)[C@H](CCCCN)NC(=O)[C@H](CCN)NC(=O)[C@H](CCCCNC(=O)c1ccc(Oc2ccccc2)cc1)NC(=O)c1ccc(Oc2ccccc2)cc1 [Compound 31, POB2K-Dab-K-K(Vancomycin)-NHMe] | 0.0925 (≈ 39.5 nM) | 0.375 (≈ 160 nM) | <0.003 | <0.003 | – | – | – | – |
